{"source": "PubChem BioAssay AID330", "about": "(DTP/NCI, 2004)", "system": "P388 leukemia ip, CD2F1 mice, survival T/C", "experiment": "NCI In Vivo Anticancer Drug Screen. Data for tumor model P388 Leukemia (intraperitoneal) in CD2F1 (CDF1) mice", "conditions": "endpoint: median survival time, higher = longer survival", "how_it_was_run": "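Mice carrying the transplanted tumor received test compound or vehicle. Survival was recorded in each group, and the value is the treated-group measurement divided by that of the vehicle-treated control group.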", "key": {"[1]": {"conditions": "dose: 60.0 mg/kg/injection, schedule: Q01DX005 (ip), vehicle: Klucel (hydroxypropylcellulose) (HPC)"}, "[2]": {"conditions": "dose: 120.0 mg/kg/injection, schedule: Q01DX005 (ip), vehicle: Klucel (hydroxypropylcellulose) (HPC)"}, "[3]": {"conditions": "dose: 240.0 mg/kg/injection, schedule: Q01DX005 (ip), vehicle: Klucel (hydroxypropylcellulose) (HPC)"}}, "note": "Values joined by “and” are separate entries in the source; they are usually repeats but may differ in a detail not shown here. Equal entries are not always repeated. Toxic doses and inconclusive results are not listed.", "data": [{"smiles": "O=C(NC(COC1OC(CO)C(O)C(O)C1O)C(O)c1ccccc1)c1ccccc1", "note": "(centres undefined)", "values": [{"measurement": "T/C", "setting": "dose: 50.0 mg/kg/injection, schedule: Q01DX009 (ip), vehicle: Klucel (hydroxypropylcellulose) (HPC)", "value": "107 % of control"}, {"measurement": "T/C", "setting": "dose: 50.0 mg/kg/injection, schedule: Q01DX009 (ip), vehicle: saline", "value": "90 % of control"}, {"measurement": "T/C", "setting": "dose: 100.0 mg/kg/injection, schedule: Q01DX009 (ip), vehicle: Klucel (hydroxypropylcellulose) (HPC)", "value": "108 % of control"}, {"measurement": "T/C", "setting": "dose: 100.0 mg/kg/injection, schedule: Q01DX009 (ip), vehicle: saline", "value": "102 % of control"}, {"measurement": "T/C", "setting": "dose: 200.0 mg/kg/injection, schedule: Q01DX009 (ip), vehicle: Klucel (hydroxypropylcellulose) (HPC)", "value": "113 % of control"}, {"measurement": "T/C", "setting": "dose: 200.0 mg/kg/injection, schedule: Q01DX009 (ip), vehicle: saline", "value": "108 % of control"}]}, {"smiles": "C[n+]1ccccc1-c1ccc[n+](CCCCC[n+]2cccc(-c3cccc[n+]3C)c2)c1", "values": [{"measurement": "T/C", "setting": "dose: 50.0 mg/kg/injection, schedule: Q01DX005 (ip), vehicle: saline", "value": "100 % of control and 104 % of control"}, {"measurement": "T/C", "setting": "dose: 100.0 mg/kg/injection, schedule: Q01DX005 (ip), vehicle: saline", "value": "99 % of control and 104 % of control"}, {"measurement": "T/C", "setting": "dose: 200.0 mg/kg/injection, schedule: Q01DX005 (ip), vehicle: saline", "value": "107 % of control"}]}, {"smiles": "CCCCOc1ccc(Nc2c(C(=O)OCC)cnc3cc4c(cc23)OCO4)cc1", "values": [{"measurement": "T/C", "setting": "[1]", "value": "97 % of control"}, {"measurement": "T/C", "setting": "[2]", "value": "95 % of control"}, {"measurement": "T/C", "setting": "[3]", "value": "97 % of control"}]}, {"smiles": "O=C(O)CCCCOc1ccc(N(CCCl)CCCl)cc1", "values": [{"measurement": "T/C", "setting": "dose: 100.0 mg/kg/injection, schedule: Q01DX001 (ip), vehicle: Klucel (hydroxypropylcellulose) (HPC)", "value": "123 % of control"}]}, {"smiles": "O=c1c(CO)c(-c2ccccc2)sc2ccccc12", "values": [{"measurement": "T/C", "setting": "[1]", "value": "96 % of control"}, {"measurement": "T/C", "setting": "[2]", "value": "97 % of control"}, {"measurement": "T/C", "setting": "[3]", "value": "95 % of control"}]}, {"smiles": "CCOC(=O)c1cn(C(=O)CCl)c2ccccc2c1=O", "values": [{"measurement": "T/C", "setting": "dose: 60.0 mg/kg/injection, schedule: Q01DX005 (ip), vehicle: saline with Tween-80", "value": "103 % of control"}, {"measurement": "T/C", "setting": "dose: 120.0 mg/kg/injection, schedule: Q01DX005 (ip), vehicle: saline with Tween-80", "value": "100 % of control"}, {"measurement": "T/C", "setting": "dose: 240.0 mg/kg/injection, schedule: Q01DX005 (ip), vehicle: saline with Tween-80", "value": "97 % of control"}]}, {"smiles": "C/C=C1\\NC(=O)c2csc(n2)C(C(C)C)NC(=O)c2csc(n2)/C(=C/C)NC(=O)C(C(C)O)NC(=O)c2csc(n2)-c2ccc(-c3nc(-c4nc(C(=O)NC(C(=O)NCC(C)O)C(C)O)cs4)cs3)nc2-c2csc1n2", "note": "(centres undefined)", "values": [{"measurement": "T/C", "setting": "dose: 0.25 mg/kg/injection, schedule: Q01DX009 (ip), vehicle: Klucel (hydroxypropylcellulose) (HPC)", "value": "107 % of control"}, {"measurement": "T/C", "setting": "dose: 0.5 mg/kg/injection, schedule: Q01DX009 (ip), vehicle: Klucel (hydroxypropylcellulose) (HPC)", "value": "112 % of control"}, {"measurement": "T/C", "setting": "dose: 1.0 mg/kg/injection, schedule: Q01DX009 (ip), vehicle: Klucel (hydroxypropylcellulose) (HPC)", "value": "104 % of control"}, {"measurement": "T/C", "setting": "dose: 2.0 mg/kg/injection, schedule: Q01DX009 (ip), vehicle: Klucel (hydroxypropylcellulose) (HPC)", "value": "103 % of control"}]}, {"smiles": "CC(/C=C/c1ccccc1)=N\\NC(=O)c1ccc(O)cc1", "values": [{"measurement": "T/C", "setting": "dose: 50.0 mg/kg/injection, schedule: Q01DX005 (ip), vehicle: Klucel (hydroxypropylcellulose) (HPC)", "value": "101 % of control"}, {"measurement": "T/C", "setting": "dose: 100.0 mg/kg/injection, schedule: Q01DX005 (ip), vehicle: Klucel (hydroxypropylcellulose) (HPC)", "value": "97 % of control"}, {"measurement": "T/C", "setting": "dose: 200.0 mg/kg/injection, schedule: Q01DX005 (ip), vehicle: Klucel (hydroxypropylcellulose) (HPC)", "value": "93 % of control"}]}, {"smiles": "CCC(C)C(C)CNC12CN3CN(CN(C3)C1)C2", "note": "(centres undefined)", "values": [{"measurement": "T/C", "setting": "dose: 50.0 mg/kg/injection, schedule: Q01DX001 (ip), vehicle: saline", "value": "103 % of control"}, {"measurement": "T/C", "setting": "dose: 100.0 mg/kg/injection, schedule: Q01DX001 (ip), vehicle: saline", "value": "104 % of control"}, {"measurement": "T/C", "setting": "dose: 200.0 mg/kg/injection, schedule: Q01DX001 (ip), vehicle: saline", "value": "108 % of control"}]}, {"smiles": "O=C(CBr)c1ccc(C(F)(F)F)cc1", "values": [{"measurement": "T/C", "setting": "dose: 6.25 mg/kg/injection, schedule: Q01DX009 (ip), vehicle: DMSO", "value": "99 % of control"}, {"measurement": "T/C", "setting": "dose: 12.5 mg/kg/injection, schedule: Q01DX009 (ip), vehicle: DMSO", "value": "88 % of control"}]}, {"smiles": "CC1(OC(=O)c2ccccc2)CC2(CCCCC2)N=N1", "note": "(centres undefined)", "values": [{"measurement": "T/C", "setting": "dose: 12.5 mg/kg/injection, schedule: Q01DX009 (ip), vehicle: saline with Tween-80", "value": "113 % of control"}, {"measurement": "T/C", "setting": "dose: 25.0 mg/kg/injection, schedule: Q01DX009 (ip), vehicle: saline with Tween-80", "value": "105 % of control"}, {"measurement": "T/C", "setting": "dose: 50.0 mg/kg/injection, schedule: Q01DX009 (ip), vehicle: saline with Tween-80", "value": "112 % of control"}, {"measurement": "T/C", "setting": "dose: 100.0 mg/kg/injection, schedule: Q01DX009 (ip), vehicle: saline with Tween-80", "value": "107 % of control"}, {"measurement": "T/C", "setting": "dose: 200.0 mg/kg/injection, schedule: Q01DX009 (ip), vehicle: saline with Tween-80", "value": "105 % of control"}]}, {"smiles": "C[C@@H]1CN1C1=CC(=O)C(N2C[C@H]2C)=CC1=O", "values": [{"measurement": "T/C", "setting": "dose: 0.31 mg/kg/injection, schedule: Q01DX009 (ip), vehicle: gum acacia", "value": "122 % of control"}, {"measurement": "T/C", "setting": "dose: 1.25 mg/kg/injection, schedule: Q01DX009 (ip), vehicle: gum acacia", "value": "169 % of control"}, {"measurement": "T/C", "setting": "dose: 2.5 mg/kg/injection, schedule: Q01DX009 (ip), vehicle: gum acacia", "value": "166 % of control and 169 % of control"}, {"measurement": "T/C", "setting": "dose: 5.0 mg/kg/injection, schedule: Q01DX009 (ip), vehicle: gum acacia", "value": "169 % of control and 173 % of control"}, {"measurement": "T/C", "setting": "dose: 37.0 micrograms/kg/injection, schedule: Q01DX009 (ip), vehicle: gum acacia", "value": "102 % of control"}, {"measurement": "T/C", "setting": "dose: 75.0 micrograms/kg/injection, schedule: Q01DX009 (ip), vehicle: gum acacia", "value": "113 % of control"}, {"measurement": "T/C", "setting": "dose: 150.0 micrograms/kg/injection, schedule: Q01DX009 (ip), vehicle: gum acacia", "value": "117 % of control"}, {"measurement": "T/C", "setting": "dose: 310.0 micrograms/kg/injection, schedule: Q01DX009 (ip), vehicle: gum acacia", "value": "111 % of control"}]}]}
